What was measured:
[1] = in vivo early half-life of the dye; conditions: dye in its small molecule form
[2] = solubility of the dye in the plant nutrient; type: physicochemical; conditions: dye in its small molecule form; nutrient may be water

in vivo early half-life [1]: shorter
solubility in the nutrient [2]: somewhat less soluble
Compound: CC1(C)C(/C=C/C=C/C=C/C=C2\N(CCCCS(=O)(=O)O)c3ccc4ccccc4c3C2(C)C)=[N+](CCCCS(=O)(=O)[O-])c2ccc3ccccc3c21 [Indocyanine green, indocyanine green]

— US10852236B2, “Method of measuring plant nutrient transport using near-infrared imaging” (Curadel, LLC, priority 2017, dated 2020)
